Like-named read-outs stand apart in the source and are kept apart here.
Legend:
OVX female Swiss mice = assay type: in vivo, mouse
Protocol: (§1) Methods: Female Swiss mice with 80–100 days of life were OVX, after 2 weeks females in anestrous were distributed in the control groups (CTL): fed with normolipid diet and water containing 0.01% ethanol (vehicle); BPA control (CBPA): normolipid diet and water containing 0.01% ethanol and 1 μg/mL BPA; HFD: diet containing 36 g% fat and vehicle; and (HBPA): HFD and BPA. After 3 months, glucose tolerance test (GTT) and islet isolation for insulin secretion were performed (CEUA UFRJ-Macaé: MAC035 approval). Data were analyzed for the distribution of normality (Shapiro–Wilk), followed by analysis of variances: parametric (ANOVA followed by Newman–Keuls) or non-parametric (Kruskal–Wallis followed by Dunns; P < 0.05).

[1] = test system: islets isolated from OVX female Swiss mice; assay: Glucose-stimulated insulin secretion of isolated islets; assay type: cell-based, mouse; conditions: 2.8 mM glucose; HFD islets 1.2 ± 0.14
Protocol: as §1

diabetic pregnant women = assay type: in vivo, human; conditions: 2009-2016, medical records
Protocol: Methods: We analyzed the medical records of the diabetic pregnant women who were attended at the Endocrinology Clinic of Hospital do Servidor Público Municipal between 2009 and 2016. The incidence of fetal macrosomia, prematurity, respiratory distress, hospitalization in intensive care unit and abortion were analyzed and correlated to the glycemic control. Good glycemic control was defined by the presence of at least 80% of capillary blood glucose within the following range: pre-prandial < 90 mg/dL, 1 h postprandial < 140 mg/dL, 2 h postprandial < 120 mg/dL

patient with glucagonoma = assay: Case report: glucagonoma; assay type: in vivo, human; conditions: zinc vitamin supplement and Octreotide
Description: Case report: patient four, hospitalized in 2015 for investigation of cholestatic syndrome associated with pancreatic mass of 51x48 mm evidenced on abdominal tomography (15/05/03). The patient underwent corpocaudal pancreatectomy and total splenectomy, with free surgical margins, but with angiolymphatic invasion. […] The patient received chemotherapy with gemcitabine which was replaced by Folfirinox. However, after 1 year without medical follow-up, they returned presenting weight loss, cutaneous disseminated lesions in the upper and lower limbs (Fig. 1), trunk and genitalia, angular cheilitis, macroglossia, deep venous thrombosis of the lower limbs and glycemia above 400 mg/dl. Figure 1: Cutaneous disseminated lesions It was used several antimicrobial regimens to treat skin lesions, unsuccessful, and performed biopsies of the skin, that diagnosis psoriasiform spongious dermatitis. The case was referred to the endocrinology departament and we did the diagnosis of glucagonoma, based on the symptoms and skin lesions, confirmed by pancreatic glucagon levels of 722 pg/ml (reference value < 208 pg/ml). […] We considered diagnosis hypothesis of adrenal insufficiency and after offered hydrocortisone, it was observed improvement in their condition in 24 h.

[2] = test system: patient with mucormycosis; assay: Oral mucormycosis in a diabetic patient, case report; assay type: in vivo, human; conditions: treated for 10 days
Description: Case presentation: person, admitted with diabetic ketoacidosis. On the 5th day of hospitalization, they complained of odynophagia, without other symptoms. On examination of the oral cavity, was found an ulcerated, infiltrative, whitish, and non-removable lesion in the soft palate (Fig. 1). No abnormalities were found in laboratory tests.

[3] = test system: patients with long-standing T1DM; assay: Mixed-meal tolerance test + oral 5 mg glibenclamide, ultrasensitive C-peptide; assay type: in vivo, human; conditions: 4 of 6 T1DM patients
Protocol: Fasting blood was taken for measurement of C-peptide (ELISA; Mercodia® (Uppsala, Sweden; cat.Nº10-1141-01). Thirty one patients (24,5%) had C-peptide > 10 pmol/L or 0.03 ng/ml. Six patients were randomly recruited to undergo a mixed-meal tolerance test + oral 5 mg glibenclamide.

patients with T2D = assay: Network meta-analysis Gla-300 vs IDeg (inputs of the cost-effectiveness model); assay type: in vivo, human; conditions: estimated by network meta-analysis
Description: Methods: This modelling analysis simulated a cohort representing patients in the EDITION 2 and 3 trials using the IMS Core Diabetes Model with a time horizon of 50 years (lifetime) for 1,000,000 patients starting at 62 years old. […] The treatment cost was $1,561 per SHE and $13.65 per NSHE (2015 $). Utilities to estimate quality-adjusted life years (QALYs) for multiple comorbidities were applied using the minimum utility approach. A disutility of -0.0118 was applied for SHE, and method of diminishing marginal disutility for NSHE.

[4] = test system: inpatient population with diabetes; assay: Degludeca vs NPH, both with Regular Insulin, in hospital (8 patients per group); conditions: human, in vivo
Protocol: Methods: We conducted a retrospective, randomized study to compare the efficacy and safety of different basal insulin (Degludeca versus NPH), both on Basal-bolus insulin regimen on inpatient population with diabetes. Data were collected from the medical records, between May, 2016 until April, 2017. 8 patients were selected and randomized in each group. We established optimal glycemic control for patients with capillary glucose below 140 mg/dl in fasting and before main meals and below 180 mg/dL for 2 h after main meals. The criteria for excellent glycemic control was to achieve at least 70% within the previously established target and for acceptable glycemic control, those patients who had between 60% and 69% of the glycemia within the established target. The total number of hypoglycemia was assessed and classified as severe hypoglycemia (< 40 mg/dl) and mild hypoglycemia (< 70 mg/dl) as well as nocturnal hypoglycemia. In addition, the time required to achieve excellent or acceptable glycemic control was also analyzed.

[5] = test system: elderly patients with T2DM; assay: Pilot randomized trial Ideg vs Iglar-U100 with CGM; assay type: in vivo, human
Protocol: Methods: It is a pilot study with ten patients during six weeks, randomized, prospective, controlled and open label trial. Inclusion criteria: T2DM, age over 60 years, A1C from 7 to 10%, use of NPH insulin with or without oral antidiabetic drugs. […] They were evaluated for glucose variability (GV) and HYPOs by continuous glucose monitoring (CGM) after 2 weeks of treatment with either insulin.

child with CGL type 2 = assay: Case report: high doses of insulin in congenital generalized lipodystrophy; assay type: in vivo, human
Protocol: Case: Child with clinical diagnosis of CGL type 2 and diagnosis of diabetes for 1 year. Using Glargina and Lispro insulin basal/bolus (5.1 IU/kg/day) presented mean daily capillary glycemia above 600 mg/dl, associated with irritability, low weight and voracious appetite. Interned for intravenous insulin therapy and nutritional adjustment with standardized diet of 1600 kcal/day fractionated in 7 meals. Initiated continuous infusion of regular insulin (RI), 6.1UI/kg/day. […] Subsequently, it was modified to intramuscular administration, in 5 application times, without differences in glycemic averages. On the 36 th day, Degludeca insulin was introduced (9.3 IU/kg/day) associated with RI (18.2 U/kg/day), evolving within the first 24 h with improved glycemia (180 ± 42 mg/dl). […] After approximately fivefold increase in the initial insulin dose, there was improvement in glycemia, irritability, weight gain and decreased appetite.

type 2 diabetic patient = assay: Case report: liraglutide added to insulin degludec and metformin; assay type: in vivo, human; conditions: 30 days of Insulin Degludec 16U with metformin
Protocol: patient one, type 2 diabetic for 3 years, using Gliclazide 60 mg/day and Metformin 1500 mg/day. They reported asthenia and difficulty losing weight. […] To optimize patient glycemic control and weight loss, Liraglutide 1.2 mg/day was initiated. […] The insulin dose was reduced to 10 U and reassessed in 30 days for possible discontinuation of insulin therapy. GLP- 1 receptor agonists stimulate insulin secretion in a […] manner, inhibit glucagon secretion and hepatic glucose output, delay gastric emptying, induce satiety, reduce appetite, and cause weight loss. […] It is a therapeutic option with action well established in weight loss, metabolic and glycemic improvement in the DM2 patient. However, its action on HbA1C reduction was independent of weight loss, evidencing intensive glycemic control with HbA1C between 6.5 and 7.0% even with discrete or even absent weight loss.

[6] = test system: patients with DM 1 and DRIASM; assay: Case reports: IDeg in resistance to subcutaneous and intramuscular insulin (DRIASM); assay type: in vivo, human; conditions: patient 1; IDeg since December 2015
Protocol: It was suspected of diabetes mellitus with resistance to insulin administered subcutaneously or intramuscularly (DRIASM). […] After that it was decided to perform a therapeutic test with IDeg. […] They remained in use of IDeg 80 UI/d and lispro 600 UI/d. […] An insulin challenge test was performed with SC and IM NPH/Glargina/Detemir and IV regular insulin. […] They remained in use of IDeg 80 UI/d and aspart 2000 UI/d.

patient with DRIASM = assay: Insulin degludec in DRIASM, case report; assay type: in vivo, human
Description: Discussion: DRIASM is a rare syndrome, characterized by extreme resistance to SC and IM insulin, whose pathophysiology remains unknown. There are few treatments available and most are ineffective. The use of intraperitoneal insulin pump is the therapy with the best result so far, but it is not available in Brazil. Another possibility is the PTA, initially proposed by our group and then performed in other countries. […] After SC injection, the di-hexamers form a stable depot of multi-hexamer chains, with gradual dissociation of these chains into absorbed monomers.

T1D patients < 18 years = assay: Real-world clinical follow-up of T1D patients < 18 years switched to insulin degludec; assay type: in vivo, human; conditions: n = 9
Description: Information about HbA1c, insulin dose, weight and frequency of hypoglycaemia (self-reported by patients/parents) were collected in every consultant.

participants with T1DM = assay: Multiple-dosing crossover euglycemic glucose clamp study, steady-state PK/PD; assay type: in vivo, human
Description: For both insulins, participants received 0.4 (n = 24) or 0.6 U/kg/day (n = 24) at ~ 8 am for 8 days. Main endpoint: within-day variability (fluctuation) of smoothed glucose infusion rate (GIR) over a 24-h dosing period (GIR-smFL0-24). […] This is an ENCORE abstract previously presented at ADA2017. Funding and editorial support provided by Sanofi (Fig. 1)

[7] = test system: adults with T2D using basal insulin; assay: DELIVER2 real-world study, switch of basal insulin; assay type: in vivo, human; conditions: PS matched
Protocol: Methods: DELIVER2 used data from Predictive Health Intelligence Environment database of medical records representing 37 integrated delivery networks. […] The endpoints were A1C change from baseline, incidence and event rate of hypoglycemia (hypo) (identified by ICD-9/ICD-10 and/or plasma glucose level ≤ 70 mg/dL), and HCU (incidence and event rate of all-cause, diabetes-, and hypo-related visits) within 6 m.

[8] = test system: T2D pts aged ≥ 65 years on basal insulin; assay: DELIVER 3 retrospective real-world study; assay type: in vivo, human
Protocol: Older patients (pts) with T2D are disproportionately impacted by treatment-related hypoglycemia and its adverse consequences. […] Pts had ≥ 12 months (mo) of baseline data and ≥ 6 mo of follow-up data. The effect of cohort on A1C reduction, hypoglycemia incidence/event rate, and achievement of A1C goal at 6 mo were assessed by generalized linear models or logistic regression models with adjustment for baseline characteristics. […] This is an ENCORE abstract previously presented at ADA2017. Funding and editorial support provided by Sanofi.

[9] = test system: T2DM pts uncontrolled on BOT with other BI; assay: TOP-2 prospective observational study, 6 month interim analysis; assay type: in vivo, human
Protocol: Adult pts currently on a BOT with an indication for changing their insulin therapy due to non-achievement of glycemic targets (A1c 7.5–10.0%) are enrolled. Primary endpoint (EP) is the rate of pts achieving a fasting plasma glucose (FPG) ≤ 110 mg/dL after 6 and 12 months, respectively. Secondary EPs include change in A1c, FPG, body weight (BW) and insulin dose, hypoglycemia incidence and safety. Here we report on an interim analysis including all German pts, for whom 6 month results were available 15 months after study start (n = 661). […] Less pts experienced nocturnal hypoglycemia (0.5% vs 1.2%). […] Final results are expected for 2018 (Fig. 1)

CC(C)(c1ccc(O)cc1)c1ccc(O)cc1 [BPA, Bisphenol-A]
glycemia in GTT (OVX female Swiss mice; 15 min, HFD 444 ± 13): 427 ± 17 mg/dL | glycemia in GTT (OVX female Swiss mice; 30 min, HFD 453 ± 23): 450 ± 22 mg/dL | insulin secretion [1]: 1.8 ± 0.2 ng/islet h

CN(C)C(=N)N=C(N)N [D + PA + MTF, metformin]
pregnant women with adverse perinatal outcomes / women in group (diabetic pregnant women): 5/12

C[C@@H](O)[C@@H]1NC(=O)[C@H](CCCCN)NC(=O)[C@@H](Cc2c[nH]c3ccccc23)NC(=O)[C@H](Cc2ccccc2)NC(=O)[C@@H](NC(=O)[C@H](N)Cc2ccccc2)CSSC[C@@H](C(=O)N[C@H](CO)[C@@H](C)O)NC1=O [Octreotide]
skin lesions (necrolytic migratory erythema) (patient with glucagonoma): effective in reducing the number and extent of lesions

C[C@@H]1[C@H](O)[C@@H](C)/C=C/C=C/C=C/C=C/C=C/C=C/C=C/[C@H](O[C@@H]2O[C@H](C)[C@@H](O)[C@H](N)[C@@H]2O)C[C@@H]2O[C@](O)(C[C@@H](O)C[C@@H](O)[C@H](O)CC[C@@H](O)C[C@@H](O)CC(=O)O[C@H]1C)C[C@H](O)[C@H]2C(=O)O [amphotericin B]
clinical response [2]: favorable response

COc1ccc(Cl)cc1C(=O)NCCc1ccc(S(=O)(=O)NC(=O)NC2CCCCC2)cc1 [sulfonylurea, glibenclamide]
patients with positive response (C-peptide > 200 pmol/L) [3]: 66.7%

insulin degludec [IDeg]
A1C reduction over 24 weeks (patients with T2D): 0.98% | time to achieve excellent glycemic control, average [4]: 4 days | 24-h mean glucose, median (minimum–maximum) ([5]; CGM after 2 weeks, n = 5 per group, P = 0.84): 168 (151–206) mg/dL | standard deviation from the mean glucose, median (minimum–maximum) ([5]; CGM, P = 0.22): 69 (42– 83) | blood glucose level (child with CGL type 2; after the first 24 h of Degludeca with RI): 232.6 ± 74.7 mg/dL | glycemia (child with CGL type 2; first 24 h of Degludeca 9.3 IU/kg/day with RI 18.2 U/kg/day): 180 ± 42 mg/dL | fasting glycemia (GJ) (type 2 diabetic patient): 171 mg/dL | HbA1c (type 2 diabetic patient; […] before): 8.2% | hospitalizations due to DKA [6]: reduction of hospitalizations | treatment of DRIASM (patient with DRIASM; case report, extreme resistance to SC and IM insulin): effective in the treatment of DRIASM, with reduction in hospital admissions and DKA episodes | absorption and plasma glucose in test (patient with DRIASM; differently from all previously basal insulins): able to be absorbed and to reduce plasma glucose | Median HbA1c at 6 months after switch (T1D patients < 18 years): 7.52% | Median HbA1c before switch (T1D patients < 18 years; on previous basal insulin or CSII): 8.17%

insulin glargine [Gla-300]
A1C reduction over 24 weeks (patients with T2D): 1.00% | Within-day GIR variability (GIR-smFL0-24), lower vs. Deg-100 (participants with T1DM; 0.4 U/kg/day once daily ~8 am for 8 days, steady state, n = 24, p = 0.047): 20% | Within-day GIR variability (GIR-smFL0-24) vs. Deg-100 (participants with T1DM; 0.6 U/kg/day, n = 24): comparable | A1C during 6 m follow-up [7]: 8.40% | Mean baseline A1C ([7]; 1827 pts per group): 8.95% | achieved A1C < 7.0%, OR vs. other basal insulins ([8]; 95% CI 0.581, 1.098, P = 0.166): 0.798 | achieved A1C < 8.0%, OR vs. other basal insulins ([8]; 95% CI 0.749, 1.248, P = 0.797): 0.967 | mean (± SD) A1c before switching ([9]; n = 661): 8.21 ± 0.8% | HbA1c, TOP-2 FAS 6 month [mean±SD] ([9]; six months after switching to Gla-300): 7.67 ± 1.0%

— article PMC5907308, “21st Brazilian Diabetes Society Congress” (Diabetology & Metabolic Syndrome, 2018)
